Test system: 485176-168-R4-J1-PDC spheroids with HUVEC/MSC, viability
Assay: Anticancer human tumor 485176-168-R4-J1-PDC patient-derived pancreatic adenocarcinoma cell line growth inhibition [GQUAD]
Details: for IC50: curve of first compound; for viability, T/C: stronger effect = lower value
In short: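 Tumor cells were grown as complex spheroids with HUVEC endothelial cells and mesenchymal stem cells as stroma. G-quadruplex stabilizers were combined with targeted agents over half-log dilutions from near the clinical Cmax, or from 10 microM.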

[1] = second compound 0.0316 µM, first compound 0.0316 µM
[2] = second compound 0.0316 µM, first compound 0.316 µM
[3] = second compound 0.1 µM, first compound 0.0316 µM
[4] = second compound 0.1 µM, first compound 0.316 µM
[5] = second compound 0.316 µM, first compound 0.0316 µM
[6] = second compound 0.316 µM, first compound 0.316 µM
[7] = second compound 1 µM, first compound 0.0316 µM
[8] = second compound 1 µM, first compound 0.316 µM
[9] = second compound 3.16 µM, first compound 0.0316 µM
[10] = second compound 3.16 µM, first compound 0.316 µM
[11] = second compound 10 µM, first compound 0.0316 µM
[12] = second compound 10 µM, first compound 0.316 µM
[13] = second compound 0.0316 µM, first compound 0.1 µM
[14] = second compound 0.0316 µM, first compound 1 µM
[15] = second compound 0.0316 µM, first compound 3.16 µM
[16] = second compound 0.0316 µM, first compound 10 µM
[17] = second compound 0.1 µM, first compound 0.1 µM
[18] = second compound 0.1 µM, first compound 1 µM
[19] = second compound 0.1 µM, first compound 3.16 µM
[20] = second compound 0.1 µM, first compound 10 µM
[21] = second compound 0.316 µM, first compound 0.1 µM
[22] = second compound 0.316 µM, first compound 1 µM
[23] = second compound 0.316 µM, first compound 3.16 µM
[24] = second compound 0.316 µM, first compound 10 µM
[25] = second compound 1 µM, first compound 0.1 µM
[26] = second compound 1 µM, first compound 1 µM
[27] = second compound 1 µM, first compound 3.16 µM
[28] = second compound 1 µM, first compound 10 µM
[29] = second compound 3.16 µM, first compound 0.1 µM
[30] = second compound 3.16 µM, first compound 1 µM
[31] = second compound 3.16 µM, first compound 3.16 µM
[32] = second compound 3.16 µM, first compound 10 µM
[33] = second compound 10 µM, first compound 0.1 µM
[34] = second compound 10 µM, first compound 1 µM
[35] = second compound 10 µM, first compound 3.16 µM
[36] = second compound 10 µM, first compound 10 µM
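Note: spheroids exposed to compounds for seven days before readout.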
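Throughout, for viability, T/C: percent viability relative to DMSO vehicle control wells as 100%.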

CC[C@@]1(O)C(=O)OCc2c1cc1n(c2=O)Cc2cc3c(CN(C)C)c(O)ccc3nc2-1 + Cc1cnc(CNC(=O)c2c(=O)c3ccc(N4CCCN(C)CC4)nc3n3c2sc2ccccc23)cn1
IC50 (second compound 0.0316 µM): 113 nM
IC50 (second compound 0.1 µM): 59.2 nM
IC50 (second compound 0.316 µM): 43.4 nM
IC50 (second compound 1 µM): 10.9 nM
IC50 (second compound 3.16 µM): 1.18 nM
IC50 (second compound 10 µM): < 0.999 nM
viability, T/C (second compound 0.0316 µM, first compound 0.000999 µM): 94.4%
viability, T/C (second compound 0.0316 µM, first compound 0.00316 µM): 84.9%
viability, T/C (second compound 0.0316 µM, first compound 0.00999 µM): 87.5%
viability, T/C [1]: 70.3%
viability, T/C (second compound 0.0316 µM, first compound 0.0999 µM): 52.8%
viability, T/C [2]: 29.3%
viability, T/C (second compound 0.1 µM, first compound 0.000999 µM): 75.8%
viability, T/C (second compound 0.1 µM, first compound 0.00316 µM): 72.1%
viability, T/C (second compound 0.1 µM, first compound 0.00999 µM): 88.9%
viability, T/C [3]: 60.9%
viability, T/C (second compound 0.1 µM, first compound 0.0999 µM): 44.8%
viability, T/C [4]: 37.1%
viability, T/C (second compound 0.316 µM, first compound 0.000999 µM): 69.3%
viability, T/C (second compound 0.316 µM, first compound 0.00316 µM): 62.8%
viability, T/C (second compound 0.316 µM, first compound 0.00999 µM): 64%
viability, T/C [5]: 52.4%
viability, T/C (second compound 0.316 µM, first compound 0.0999 µM): 41.8%
viability, T/C [6]: 32.2%
viability, T/C (second compound 1 µM, first compound 0.000999 µM): 47.8%
viability, T/C (second compound 1 µM, first compound 0.00316 µM): 55.1%
viability, T/C (second compound 1 µM, first compound 0.00999 µM): 50.9%
viability, T/C [7]: 42.4%
viability, T/C (second compound 1 µM, first compound 0.0999 µM): 35.9%
viability, T/C [8]: 33.5%
viability, T/C (second compound 3.16 µM, first compound 0.000999 µM): 49.5%
viability, T/C (second compound 3.16 µM, first compound 0.00316 µM): 49.4%
viability, T/C (second compound 3.16 µM, first compound 0.00999 µM): 39.8%
viability, T/C [9]: 41.2%
viability, T/C (second compound 3.16 µM, first compound 0.0999 µM): 34.4%
viability, T/C [10]: 30.8%
viability, T/C (second compound 10 µM, first compound 0.000999 µM): 42.7%
viability, T/C (second compound 10 µM, first compound 0.00316 µM): 44.5%
viability, T/C (second compound 10 µM, first compound 0.00999 µM): 41.3%
viability, T/C [11]: 36.4%
viability, T/C (second compound 10 µM, first compound 0.0999 µM): 36.3%
viability, T/C [12]: 27.5%

COc1ncnc(C2CC2)c1-c1ncc2cnn(Cc3ccc(-c4nc(C(F)(F)F)cn4C(C)C)cc3)c2n1 + Cc1[nH]c2ccc(F)cc2c1-c1nc2c3cccnc3c3ncccc3c2[nH]1
IC50 (second compound 0.0316 µM): > 10000 nM
IC50 (second compound 0.1 µM): > 10000 nM
IC50 (second compound 0.316 µM): > 10000 nM
IC50 (second compound 1 µM): > 10000 nM
IC50 (second compound 3.16 µM): > 10000 nM
IC50 (second compound 10 µM): > 10000 nM
viability, T/C [1]: 118%
viability, T/C [13]: 81.8%
viability, T/C [2]: 101%
viability, T/C [14]: 105%
viability, T/C [15]: 104%
viability, T/C [16]: 94.2%
viability, T/C [3]: 101%
viability, T/C [17]: 106%
viability, T/C [4]: 102%
viability, T/C [18]: 102%
viability, T/C [19]: 102%
viability, T/C [20]: 110%
viability, T/C [5]: 91%
viability, T/C [21]: 85.4%
viability, T/C [6]: 107%
viability, T/C [22]: 92.4%
viability, T/C [23]: 110%
viability, T/C [24]: 110%
viability, T/C [7]: 84.9%
viability, T/C [25]: 106%
viability, T/C [8]: 118%
viability, T/C [26]: 108%
viability, T/C [27]: 115%
viability, T/C [28]: 97%
viability, T/C [9]: 88.4%
viability, T/C [29]: 90.7%
viability, T/C [10]: 104%
viability, T/C [30]: 93.8%
viability, T/C [31]: 93%
viability, T/C [32]: 80.5%
viability, T/C [11]: 90.3%
viability, T/C [33]: 97%
viability, T/C [12]: 83.5%
viability, T/C [34]: 90.9%
viability, T/C [35]: 96.9%
viability, T/C [36]: 84.6%

CCCS(=O)(=O)Nc1ccc(F)c(C(=O)c2c[nH]c3ncc(-c4ccc(Cl)cc4)cc23)c1F + Cc1[nH]c2ccc(F)cc2c1-c1nc2c3cccnc3c3ncccc3c2[nH]1
IC50 (second compound 0.0316 µM): > 10000 nM
IC50 (second compound 0.1 µM): > 10000 nM
IC50 (second compound 0.316 µM): > 10000 nM
IC50 (second compound 1 µM): > 10000 nM
IC50 (second compound 3.16 µM): > 10000 nM
IC50 (second compound 10 µM): > 10000 nM
viability, T/C [1]: 95%
viability, T/C [13]: 93.6%
viability, T/C [2]: 96.1%
viability, T/C [14]: 94.8%
viability, T/C [15]: 116%
viability, T/C [16]: 75.5%
viability, T/C [3]: 84.8%
viability, T/C [17]: 102%
viability, T/C [4]: 87.8%
viability, T/C [18]: 86.1%
viability, T/C [19]: 99.1%
viability, T/C [20]: 71.2%
viability, T/C [5]: 105%
viability, T/C [21]: 86.1%
viability, T/C [6]: 90.7%
viability, T/C [22]: 82.9%
viability, T/C [23]: 80.1%
viability, T/C [24]: 67.2%
viability, T/C [7]: 87.2%
viability, T/C [25]: 85.2%
viability, T/C [8]: 76.7%
viability, T/C [26]: 84.2%
viability, T/C [27]: 77.5%
viability, T/C [28]: 69.5%
viability, T/C [9]: 104%
viability, T/C [29]: 88.6%
viability, T/C [10]: 89%
viability, T/C [30]: 72.1%
viability, T/C [31]: 84%
viability, T/C [32]: 63.5%
viability, T/C [11]: 84.9%
viability, T/C [33]: 91%
viability, T/C [12]: 88.4%
viability, T/C [34]: 74.9%
viability, T/C [35]: 66.6%
viability, T/C [36]: 51.7%

CC(C)n1c(=O)n(C)c2cnc3cc(F)c(-c4ccc(OCCCN5CCCCC5)nc4)cc3c21 + Cc1cnc(CNC(=O)c2c(=O)c3ccc(N4CCCN(C)CC4)nc3n3c2sc2ccccc23)cn1
IC50 (second compound 0.0316 µM): > 10000 nM
IC50 (second compound 0.1 µM): < 31.6 nM
IC50 (second compound 0.316 µM): < 31.6 nM
IC50 (second compound 1 µM): < 31.6 nM
IC50 (second compound 3.16 µM): < 31.6 nM
IC50 (second compound 10 µM): < 31.6 nM
viability, T/C [1]: 65%
viability, T/C [13]: 50.2%
viability, T/C [2]: 63.1%
viability, T/C [14]: 59.2%
viability, T/C [15]: 62.2%
viability, T/C [16]: 61.2%
viability, T/C [3]: 40.2%
viability, T/C [17]: 47.4%
viability, T/C [4]: 35.6%
viability, T/C [18]: 50%
viability, T/C [19]: 49.2%
viability, T/C [20]: 47.5%
viability, T/C [5]: 39.6%
viability, T/C [21]: 36%
viability, T/C [6]: 30.4%
viability, T/C [22]: 33.5%
viability, T/C [23]: 34.5%
viability, T/C [24]: 41.3%
viability, T/C [7]: 27%
viability, T/C [25]: 30.2%
viability, T/C [8]: 34.2%
viability, T/C [26]: 34.5%
viability, T/C [27]: 30%
viability, T/C [28]: 34.7%
viability, T/C [9]: 36.1%
viability, T/C [29]: 34.3%
viability, T/C [10]: 33.5%
viability, T/C [30]: 34.7%
viability, T/C [31]: 29.5%
viability, T/C [32]: 25.6%
viability, T/C [11]: 27%
viability, T/C [33]: 27.7%
viability, T/C [12]: 28.9%
viability, T/C [34]: 28.2%
viability, T/C [35]: 25.2%
viability, T/C [36]: 24.5%

Reference: PubChem BioAssay AID2060509 (Molecular Pharmacology Branch, DTP, NCI, 2025)
